ChEMBL document CHEMBL4680234, “Antibacterial AZT derivative regulates metastasis of breast cancer cells” (Eur J Med Chem, 2020)
≈ marks a conversion by molar mass, not a printed value. Calls of active or inactive are those of the source. The calls are words filed in the database; no cut-off is given here.

Experiments:
[1] = test system: Staphylococcus aureus; assay: Antibacterial activity against Staphylococcus aureus KCTC 1621 assessed as reduction in bacterial growth incubated for 18 to 22 hrs by spectrophotometry based broth microdilution method; assay type: functional; conditions: time 18-22 hrs, read-out: MIC100
[2] = test system: Bacillus subtilis; assay: Antibacterial activity against Bacillus subtilis KCTC 3068 assessed as reduction in bacterial growth incubated for 18 to 22 hrs by spectrophotometry based broth microdilution method; assay type: functional; conditions: time 18-22 hrs, read-out: MIC100
[3] = test system: Pseudomonas aeruginosa; assay: Antibacterial activity against Pseudomonas aeruginosa KCTC 1637 assessed as reduction in bacterial growth incubated for 18 to 22 hrs by spectrophotometry based broth microdilution method; assay type: functional; conditions: time 18-22 hrs, read-out: MIC100
[4] = test system: Escherichia coli; assay: Antibacterial activity against Escherichia coli KCTC 1682 assessed as reduction in bacterial growth incubated for 18 to 22 hrs by spectrophotometry based broth microdilution method; assay type: functional; conditions: time 18-22 hrs, read-out: MIC100
[5] = test system: Bacillus subtilis; assay: Potency index, ratio of melittin MIC to test compound MIC for antibacterial activity against Bacillus subtilis KCTC 3068; assay type: functional
[6] = Therapeutic index, ratio of MHC for sheep RBC to geometric mean of peptide MIC for Staphylococcus aureus KCTC 1621; assay type: toxicity; conditions: sheep red blood cells (erythrocytes), read-out: TI
[7] = test system: Erythrocyte; assay: Hemolytic activity in sheep RBC at 16 ug/ml measured after 2 hrs by ELISA; assay type: cell-based, Ovis aries; conditions: dose 16 µg/ml
[8] = test system: Staphylococcus aureus; assay: Potency index, ratio of melittin MIC to test compound MIC for antibacterial activity against Staphylococcus aureus KCTC 1621; assay type: functional
[9] = Therapeutic index, ratio of MHC for sheep RBC to geometric mean of peptide MIC for Escherichia coli KCTC 1682; assay type: toxicity; conditions: sheep red blood cells (erythrocytes), read-out: TI
[10] = test system: Pseudomonas aeruginosa; assay: Potency index, ratio of melittin MIC to test compound MIC for antibacterial activity against Pseudomonas aeruginosa KCTC 1637; assay type: functional
[11] = Therapeutic index, ratio of MHC for sheep RBC to geometric mean of peptide MIC for Pseudomonas aeruginosa KCTC 1637; assay type: toxicity; conditions: sheep red blood cells (erythrocytes), read-out: TI
[12] = Therapeutic index, ratio of MHC for sheep RBC to geometric mean of peptide MIC for Bacillus subtilis KCTC 3068; assay type: toxicity; conditions: sheep red blood cells (erythrocytes), read-out: TI
[13] = test system: Erythrocyte; assay: Hemolytic activity in sheep RBC measured after 2 hrs by ELISA; assay type: ADME, cell-based, Ovis aries
[14] = test system: Staphylococcus aureus; assay: Antimicrobial activity against methicillin-resistant Staphylococcus aureus CCARM 3090 assessed as reduction in microbial growth incubated for 18 to 24 hrs by broth microdilution method; assay type: functional; conditions: time 18-24 hrs
[15] = test system: Staphylococcus aureus; assay: Antimicrobial activity against methicillin-resistant Staphylococcus aureus CCARM 3095 assessed as reduction in microbial growth incubated for 18 to 24 hrs by broth microdilution method; assay type: functional; conditions: time 18-24 hrs
[16] = test system: Staphylococcus aureus; assay: Antimicrobial activity against methicillin-resistant Staphylococcus aureus CCARM 3089 assessed as reduction in microbial growth incubated for 18 to 24 hrs by broth microdilution method; assay type: functional; conditions: time 18-24 hrs
[17] = test system: Staphylococcus aureus; assay: Potency index, ratio of melittin MIC to test compound MIC for antimicrobial activity against methicillin-resistant Staphylococcus aureus CCARM 3095; assay type: functional
[18] = test system: MDA-MB-231; assay: Cytotoxicity against human MDA-MB-231 cells assessed as reduction in cell viability at 50 uM measured after 48 hrs by EZCytox cell viability assay; assay type: cell-based; conditions: mda-mb-231, 48 h
[19] = test system: MDA-MB-231; assay: Antimigratory activity in human MDA-MB-231 cells assessed as reduction in wound closure at 40 uM measured after 18 to 36 hrs by microscopic analysis; assay type: functional, cell-based; conditions: time 18-36 hrs
[20] = test system: Pseudomonas aeruginosa; assay: Potency index, ratio of melittin MIC to test compound MIC for antimicrobial activity against multidrug-resistant Pseudomonas aeruginosa CCARM 2109 assessed as reduction in microbial growth
[21] = test system: MDA-MB-231; assay: Antiinvasive activity in human MDA-MB-231 cells at 40 uM measured after 16 hrs using crystal violet staining microscopy based Boyden chamber assay; assay type: functional, cell-based
[22] = test system: Staphylococcus aureus; assay: Potency index, ratio of melittin MIC to test compound MIC for antimicrobial activity against methicillin-resistant Staphylococcus aureus CCARM 3089; assay type: functional
[23] = test system: Pseudomonas aeruginosa; assay: Potency index, ratio of melittin MIC to test compound MIC for antimicrobial activity against multidrug-resistant Pseudomonas aeruginosa CCARM 2095 assessed as reduction in microbial growth
[24] = test system: MDA-MB-231; assay: Inhibition of cell motility in human MDA-MB-231 cells assessed as reduction in cell migration distance at 40 uM measured at 30 mins interval for 24 hrs by time-lapse […] analysis; assay type: functional, cell-based
[25] = test system: Staphylococcus aureus; assay: Potency index, ratio of melittin MIC to test compound MIC for antimicrobial activity against methicillin-resistant Staphylococcus aureus CCARM 3090; assay type: functional
[26] = test system: MDA-MB-231; assay: Inhibition of actin polymerization in human MDA-MB-231 cells assessed as reduction in lamellipodium formation at 20 to 40 uM measured after 6 hrs by Texas Red-conjugated phalloidin staining based fluorescence microscopic analysis; assay type: cell-based; conditions: dose 20-40 µM

| SMILES | MIC [1] [µg/mL] | MIC [2] [µg/mL] | MIC [3] [µg/mL] | MIC [4] [µg/mL] | MIC [14] [µg/mL] | MIC [15] [µg/mL] | MIC [16] [µg/mL] | also measured |
| --- | --- | --- | --- | --- | --- | --- | --- | --- |
| Cc1cn([C@H]2C[C@H](NC(=O)C3CCCCC3)[C@@H](CNC(=O)C3CCCCC3)O2)c(=O)nc1N(CCCNC(=N)N)CCCNC(=N)N | 32 (≈ 48.6 µM) | 32 (≈ 48.6 µM) | 16 (≈ 24.3 µM) | > 64 |  |  |  |  |
| Cc1cn([C@H]2C[C@H](NC(=O)CC34CC5CC(CC(C5)C3)C4)[C@@H](CNC(=O)CC34CC5CC(CC(C5)C3)C4)O2)c(=O)nc1N(CCCN)CCCN | 4 (≈ 5.67 µM) | 2 (≈ 2.83 µM) | 4 (≈ 5.67 µM) | 32 (≈ 45.3 µM) |  |  |  | Ratio [5]: 4; selectivity ratio [6]: 5; Activity [7]: Non-Toxic; Ratio [8]: 2; selectivity ratio [9]: 5; Ratio [10]: 4; selectivity ratio [11]: 5; selectivity ratio [12]: 5; MHC [13]: 52 µg/mL |
| O=C(N[C@H](CO)[C@H](O)c1ccc([N+](=O)[O-])cc1)C(Cl)Cl [CHLORAMPHENICOL] |  |  |  |  | 256 | 512 | 512 |  |
| Cc1cn([C@H]2C[C@H](NC(=O)C3CCCCC3)[C@@H](CNC(=O)C3CCCCC3)O2)c(=O)nc1NCCNC(=N)N | > 64 | > 64 | > 64 | > 64 |  |  |  |  |
| Cc1onc(-c2ccccc2)c1C(=O)N[C@@H]1C(=O)N2[C@@H]1SC(C)(C)[C@@H]2C(=O)O [OXACILLIN] |  |  |  |  | 512 | 256 | 256 |  |
| Cc1cn([C@H]2C[C@H](NC(=O)CCCc3ccccc3)[C@@H](CNC(=O)CCCc3ccccc3)O2)c(=O)nc1N(CCCNC(=N)N)CCCNC(=N)N | 8 (≈ 11 µM) | 8 (≈ 11 µM) | 16 (≈ 21.9 µM) | > 64 |  |  |  |  |
| CCCCCC(=O)NC[C@H]1O[C@@H](n2cc(C)c(NCCNC(=N)N)nc2=O)C[C@@H]1NC(=O)CCCCC | > 64 | > 64 | 64 (≈ 123 µM) | > 64 |  |  |  |  |
| Cc1cn([C@H]2C[C@H](NC(=O)CCCc3ccccc3)[C@@H](CNC(=O)CCCc3ccccc3)O2)c(=O)nc1N(CCCN)CCCN | 32 (≈ 49.5 µM) | 16 (≈ 24.8 µM) | 4 (≈ 6.19 µM) | > 64 |  |  |  |  |
| Cc1cn([C@H]2C[C@H](NC(=O)CC34CC5CC(CC(C5)C3)C4)[C@@H](CNC(=O)CC34CC5CC(CC(C5)C3)C4)O2)c(=O)nc1N(CCCNC(=N)N)CCCNC(=N)N | 2 (≈ 2.53 µM) | 2 (≈ 2.53 µM) | 4 (≈ 5.06 µM) | 16 (≈ 20.3 µM) | 8 | 8 | 8 | Ratio [5]: 4; Ratio [17]: 2; selectivity ratio [6]: 4.2; Activity [18]: Non-Toxic; Activity [7]: Non-Toxic; Ratio [8]: 4; Activity [19]: Active; Ratio [20]: 2; Activity [21]: Active; selectivity ratio [9]: 4.2; Ratio [10]: 4; Ratio [22]: 2; selectivity ratio [11]: 4.2; Ratio [23]: 2; Activity [24]: Active; Ratio [25]: 2; selectivity ratio [12]: 4.2; MHC [13]: 25 µg/mL; inhibition [26]: Active |
| Cc1cn([C@H]2C[C@H](NC(=O)Cc3cccc4ccccc34)[C@@H](CNC(=O)Cc3cccc4ccccc34)O2)c(=O)nc1NCCNC(=N)N | 32 (≈ 48.4 µM) | 16 (≈ 24.2 µM) | > 64 | > 64 |  |  |  |  |
